Measured values: article PMC12308784, “Organometallic Half-Sandwich Complexes of 1,10-Phenanthroline Derivatives with Improved Solubility, Albumin-Binding, and Nanoformulation Potential Targeting Drug Resistance in Cancer” (Inorganic Chemistry, 2025)
Where “and” joins values, the source holds several entries; their conditions need not be identical. Equal values may be shown once.

What was measured:
[1] = pKa of the coordinated aqua ligand by UV–vis pH titration; format: physicochemical; details: [M(arene/arenyl)(ligand)(H2O)]2+; chloride-free; I = 0.2 M KNO3; t = 25 °C
Protocol: The K a values of the complexes with BP and DCP ligands for the [M(η^6-arene/η^5-arenyl)(ligand)(H2O)]^2+ ⇌ [M(η^6-arene/η^5-arenyl)(ligand)(OH)]^+ + H^+ process also provide valuable insights into their behavior in aqueous solutions. In order to determine the K a values, UV–vis spectra were recorded at different pH values under chloride-free conditions, as shown for the complex RuCymDCP in Figure , and the determined pK a values are presented in Table . […] However, at higher pH values, spectral shifts indicate the onset of aqua ligand deprotonation. For RuCym complexes, the calculated pK a values (Table ) indicate moderate acidity and a higher tendency for deprotonation at physiological pH compared with the RhCp* complexes. […] This lower value is most likely due to the stronger tendency of IrCp*, as well as RuCym, to undergo hydrolysis compared to RhCp*.
An Agilent Cary 8454 diode array spectrophotometer was utilized to obtain UV–vis spectra in the wavelength range 190–1100 nm; the path length was 1 cm. The concentrations of the complexes were between 20 and 100 μM. The actual pH of the samples were measured with an Orion 710A pH-meter equipped with a Metrohm combined electrode (type 6.0234.100) and the pH titrations were performed by a KOH solution using a Metrohm 665 Dosimat buret at 25.0 °C. […] The computer program HypSpec was used to calculate the equilibrium constants.

[2] = molecular target: T1, human serum albumin (HSA), Trp-214 in Sudlow’s site I (Homo sapiens, UniProt P02768); assay: Trp-214 fluorescence quenching of HSA; format: binding; details: PBS’; t = 25 °C; 24 h incubation; c HSA = 1.2 μM; RuCym values conditional at 24 h
T1 construct: purchased Sigma-Aldrich A8763
Source text: Fluorescence spectroscopy was utilized to elucidate the binding sites on HSA that are targeted by the metal complexes. This investigation concentrated on two key aspects: the quenching of HSA’s intrinsic fluorescence attributed to the sole tryptophan residue (Trp-214) and the displacement of site-specific fluorescent markers warfarin (WF) and dansylglycine (DG). Trp-214 is situated in Sudlow’s site I within the IIA subdomain, rendering it a valuable probe for evaluating interactions at this site. Fluorometric measurements, conducted over a 5 h time frame (see example for RhCp*BP in Figure S19), corroborated the results of UV–vis experiments, the quenching of fluorescence took several hours for the RhCp* complexes, while RuCym compounds had no remarkable effect of Trp-214 fluorescence. Quenching studies were conducted over a 24 h incubation period. This time frame is most probably not enough to reach equilibrium with RuCym complexes; however, this is considered as the upper limit that can be physiologically relevant, as longer incubation times are rendered irrelevant by metabolism and elimination. […] Quenching constants (KQ^′) were computed using HypSpec software. […] It should be noted that quenching constants calculated for the RuCym complexes represent only a temporary state at 24 h of incubation time.
7 Binding interactions of RhCp*BP with HSA analyzed via fluorescence quenching and marker displacement assays. (a) Trp214 fluorescence quenching by RhCp*BP. (b) Measured (dots) and fitted (dashed lines) quenching curves for RhCp*BP, RuCymBP, RhCp*DCP, and RuCymDCP. Fluorescence spectra of the (c) HSA–WF 1:1 and (e) HSA–DG 1:1 systems by the addition of RhCp*BP (dashed lines indicate the free site marker) and the corresponding fluorescence intensity curves at the indicated wavelengths (d,f). The dotted line in figure (d) denotes the fitted intensities. {c HSA = 1.2 μM; c marker = 0 or 1.2 μM PBS’; t = 25 °C}.
Fluorescence measurements were carried out on a Fluoromax (Horiba Jobin Yvon) spectrofluorometer using a 1 cm × 1 cm quartz cuvette in order to assess the interactions of the complexes with HSA in PBS’ medium at 25 °C. The calculated quenching or displacement conditional constants for the HSA-complex species were obtained using the computer program HypSpec. Calculations always were based on data obtained from at least two independent measurements. Self-absorbance and inner filter effect had to be taken into account, and corrections were made as it was described in our former works. , […]
Table S7. Conditions applied for steady -state spectrofluorometric measurements. cHSA cMARKER ccomplex λEX λEM slit widths […]

T1 sequence (P02768 25-609): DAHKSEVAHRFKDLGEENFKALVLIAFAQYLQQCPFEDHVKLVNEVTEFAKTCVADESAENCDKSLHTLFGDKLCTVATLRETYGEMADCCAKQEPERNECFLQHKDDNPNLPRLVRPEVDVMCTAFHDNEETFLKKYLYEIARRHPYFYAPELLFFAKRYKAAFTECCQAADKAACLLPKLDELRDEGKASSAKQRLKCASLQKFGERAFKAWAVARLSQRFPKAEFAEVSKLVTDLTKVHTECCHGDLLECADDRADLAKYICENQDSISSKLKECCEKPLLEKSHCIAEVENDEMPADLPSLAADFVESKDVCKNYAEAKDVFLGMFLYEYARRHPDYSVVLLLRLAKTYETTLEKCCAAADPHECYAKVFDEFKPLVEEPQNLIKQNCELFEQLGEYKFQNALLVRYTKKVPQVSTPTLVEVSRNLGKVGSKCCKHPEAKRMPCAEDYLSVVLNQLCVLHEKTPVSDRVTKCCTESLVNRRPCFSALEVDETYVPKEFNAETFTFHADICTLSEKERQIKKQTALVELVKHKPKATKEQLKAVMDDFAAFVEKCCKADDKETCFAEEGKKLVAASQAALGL

Cc1c(C)c(C)[c-](C)c1C.Clc1ccnc2c1ccc1c(Cl)ccnc12.[Cl-].[Cl-].[Rh+3] [RhCp*DCP, [Rh(III)(η^5-C5Me5)(4,7-dichloro-1,10-phenanthroline)Cl]Cl]
pK a [ML(H2O)] [1]: 8.33 ± 0.05 | logK Q′ (quenching constant) [2]: 4.6 and 4.6 ± 0.1

Cc1ccc(C(C)C)cc1.[Cl-].[Cl-].[Ru+2].c1ccc(-c2ccnc3c2ccc2c(-c4ccccc4)ccnc23)cc1 [RuCymBP, [Ru(II)(η^6-p-cymene)(bathophenanthroline)Cl]Cl]
pK a [ML(H2O)] [1]: 7.57 ± 0.06 | logK Q′ (quenching constant) [2]: 4.3 ± 0.1

Cc1ccc(C(C)C)cc1.Clc1ccnc2c1ccc1c(Cl)ccnc12.[Cl-].[Cl-].[Ru+2] [RuCymDCP, [Ru(II)(η^6-p-cymene)(4,7-dichloro-1,10-phenanthroline)Cl]Cl]
pK a [ML(H2O)] [1]: 7.21 ± 0.06 | logK Q′ (quenching constant) [2]: ≤3.8

[Rh(III)(η^5-C5Me5)(bathophenanthroline)Cl]Cl [RhCp*BP]
pK a [ML(H2O)] [1]: 8.81 ± 0.06 | logK Q′ (quenching constant) [2]: 5.5 and 5.5 ± 0.1
